This is an account of results in patent publication US20240051976A1, “A Tracer Compound and a Preparation Method Thereof” (Turun Yliopisto, priority 2020, published 2024).

Series [1] concerns B16/F10 melanoma cells. Put plainly: Nonspecific B16/F10 melanoma cell-uptake (free, membrane-bound, internalized fractions). The format is cell-based, mouse. The following applies: for radioactivity in the free fraction outside the cells: n=3. The procedure:
Rat pancreatic tumor cell line AR42J that expresses SSTR was obtained from American Type Culture Collection (Manassas, VA). C4-2 cells (ATCC® CRL-3314™) were cultured in DMEM medium (Gibco) supplemented with 18% F12 medium (Sigma), 10% FBS (Gibco) and 1% T-medium. Both cell lines were grown in at 37° C. in a humidified incubator containing 5% C02. Cells grown to 80%-90% confluence were used for either in vitro or in vivo experiments. Mouse skin melanoma B16/F10 cells were cultured in CO2 Independent Medium (Life Technologies Gibco, cat. #18045054) supplemented with GlutaMax (1× final concentration, 10% FBS and Pen-Strep at 37° C. in a humidified incubator. The B16/F10 cell viability was 97%. The C4-2 cells (ATCC® CRL-3314™) were cultured in DMEM medium (Gibco) supplemented with 18% F12 medium (Sigma), 10% FBS (Gibco) and 1% T-medium. Both cell lines were grown in at 37° C. in a humidified incubator containing 5% C02. Cells grown to 80%-90% confluence were used for either in vitro or in vivo experiments.
500 000 cells/well were seeded overnight on 6-well plates. The growth media was removed and the reaction media containing the radiotracer [^18F]4 was added. […] The membrane-bound fraction was collected by adding cold glycine buffer (1 mL) on the cells, incubating for 5 minutes on an ice bath, removing the supernatant, repeating the procedure, and washing the cells with cold 1×PBS, and collecting all the supernatants to the same microtube. For determining the internalized fraction, 1 M NaOH was added on the cells and left to incubate in ambient temperature for 10 minutes. The supernatant was removed and the cells were washed twice with cold 1×PBS, and the supernatants were collected into the same microtube. The supernatants collected separately in each phase, were measure with a gamma counter for determining the radioactivity-ratio (%) of each fraction. […] The radioactivity distribution between the aforementioned fractions is depicted in FIG. 9.

Series [2] is described as follows: PET/CT, biodistribution and elimination in control SCID mice. The format is in vivo, mouse. Particulars: intravenous. The procedure: [^18F]AmBF3-Tz ([^18F]4) was formulated in 10% ethanol in 0.01 M PBS and administered intravenously to SCID mice. The PET/CT image was acquired with Inveon PET/CT and Molecubes PET and CT.
[^18F]AmBF3-Tz ([^18F]4) was formulated in 10% ethanol in 0.01 M PBS and administered intravenously to SCID mice. The standardized uptake values (SUVs) presenting the elimination profile (FIGS. 13a and 13b) were determined from the PET image by drawing regions-of-interest (ROI) around selected organs (heart, liver, kidney, lung, muscle, urinary bladder) and by measuring the ratio of radioactivity per unit volume of that ROI and normalized to the injected dose.

As to `C[N+](C)(CCNC(=O)Cc1ccc(-c2nncnn2)cc1)C[B-](F)(F)F` [[^18F]4, {[(2-{2-[4-(1,2,4,5-tetrazin-3-yl)phenyl]acetamido}ethyl)dimethylammonio]methyl}trifluoroborate], the “radioactivity in the free fraction outside the cells” value was 99.3±0.09% in series [1] (B16/F10 cells, 15 min) and 99.3±0.08% in series [1] (B16/F10 cells, 240 min). Also, the “% of total radioactivity in the free fraction” value in series [1] (B16/F10 cells, at each time point (FIG. 9)) was “Over 99%”. For the same compound, the “nonspecific uptake in B16/F10 cells” value in series [1] (throughout the study) is recorded as “did not demonstrate nonspecific uptake”. The main elimination route entry in series [2] is reported as “through kidneys”. Further, the “in vivo stability (bone uptake)” value in series [2] (PET/CT and biodistribution) is on record as “excellent stability”.
